Source: ChEMBL document CHEMBL1157845, “Structure-activity relationship of new anti-tuberculosis agents derived from oxazoline and oxazole benzyl esters” (Eur J Med Chem, 2010)
Converted amounts (≈) assume the structure as drawn. The source made the active and inactive calls. Unless noted, no cut-off for these calls is given here.

How the values were obtained:
[1] = test system: Mycobacterium tuberculosis; assay: Antimycobacterial activity against Mycobacterium tuberculosis Erdman infected in BALB/c mouse assessed as reduction of bacterial load at 200 mg/kg, po qd for 5 days per week administered 60 days after infection measured after 85 days post infection; type: functional, organism-based; parameters: dose 200 mg/kg
[2] = test system: Vero; assay: Cytotoxicity against african green monkey Vero cells by colorimetric assay; type: cell-based; conditions: Chlorocebus sabaeus
[3] = test system: Mycobacterium avium; assay: Antimycobacterial activity against Mycobacterium avium MAC 101; type: functional, organism-based
[4] = test system: Mycobacterium tuberculosis; assay: Antimycobacterial activity against Mycobacterium tuberculosis H37Rv ATCC 27294 incubated 10 days under anaerobic condition measured after 24 hrs recovery in air by luciferase based low oxygen recovery assay; type: functional
[5] = test system: Mycolicibacterium smegmatis; assay: Antimycobacterial activity against Mycobacterium smegmatis SG 987; type: functional, organism-based
[6] = test system: Mus musculus; assay: Toxicity in mouse assessed as change in gross appearance at 100 mg/kg, po qd for 5 days followed by 2 days rest and 200 mg/kg, po qd for 5 days; type: organism-based; conditions: in vivo
[7] = test system: Bacillus subtilis; assay: Antibacterial activity against Bacillus subtilis ATCC 6633; type: functional, organism-based
[8] = Chemical stability in simulated gastric fluid assessed as compound remaining after 2 hrs by HPLC analysis; type: physicochemical; conditions: simulated gi fluid
[9] = test system: Mycolicibacterium vaccae; assay: Antimycobacterial activity against Mycobacterium vaccae 10670; type: functional, organism-based
[10] = test system: Mycobacterium avium; assay: Antimycobacterial activity against Mycobacterium avium MAC 109; type: functional, organism-based
[11] = test system: Micrococcus luteus; assay: Antibacterial activity against Micrococcus luteus ATCC 10240; type: functional, organism-based
[12] = test system: Mycolicibacterium vaccae; assay: Antimycobacterial activity against Mycobacterium vaccae 10670 by agar diffusion assay; type: functional, organism-based
[13] = test system: Mus musculus; assay: Toxicity in mouse assessed as change in body weight at 100 mg/kg, po qd for 5 days followed by 2 days rest and 200 mg/kg, po qd for 5 days; type: organism-based; conditions: in vivo
[14] = test system: Sporobolomyces salmonicolor; assay: Antimicrobial activity against Sporobolomyces salmonicolor SBUG 549; type: functional, organism-based
[15] = test system: Candida albicans; assay: Antifungal activity against Candida albicans; type: functional, organism-based
[16] = test system: Escherichia coli; assay: Antibacterial activity against Escherichia coli SG 458; type: functional, organism-based
[17] = test system: Mycobacterium tuberculosis; assay: Antimycobacterial activity against Mycobacterium tuberculosis H37Rv ATCC 27294 in GAST medium after 1 week by microplate alamar blue assay; type: functional; conditions: H37Rv ATCC 27294, 168 h
[18] = test system: Mycolicibacterium fortuitum; assay: Antimycobacterial activity against Mycobacterium fortuitum B by agar diffusion assay; type: functional, organism-based
[19] = test system: Mus musculus; assay: Toxicity in mouse assessed as behavioral change at 100 mg/kg, po qd for 5 days followed by 2 days rest and 200 mg/kg, po qd for 5 days; type: organism-based; conditions: in vivo
[20] = test system: Mycolicibacterium fortuitum; assay: Antimycobacterial activity against Mycobacterium fortuitum B; type: functional, organism-based
[21] = test system: Mycobacterium avium; assay: Antimycobacterial activity against Mycobacterium avium MAC 100; type: functional, organism-based
[22] = test system: Staphylococcus aureus; assay: Antibacterial activity against Staphylococcus aureus SG 511; type: functional, organism-based
[23] = test system: Mycolicibacterium aurum; assay: Antimycobacterial activity against Mycobacterium aurum SB 66; type: functional, organism-based
[24] = test system: Liver microsomes; assay: Metabolic stability in Sprague-Dawley rat microsomes assessed as compound remaining after 15 mins by HPLC analysis; type: ADME, Microsome; conditions: 0.25 h
[25] = test system: Mycobacterium tuberculosis; assay: Antimycobacterial activity against Mycobacterium tuberculosis Erdman infected in BALB/c mouse assessed as reduction of bacterial load at 50 mg/kg, po qd for 5 days per week administered 60 days after infection measured after 85 days post infection; type: functional, organism-based; parameters: dose 50 mg/kg
[26] = test system: Colletotrichum; assay: Antifungal activity against Glomerella; type: functional, organism-based
[27] = test system: Proteus vulgaris; assay: Antibacterial activity against Proteus vulgaris OX 19; type: functional, organism-based
[28] = test system: Mycobacterium avium; assay: Antimycobacterial activity against Mycobacterium avium MAC 108; type: functional, organism-based
[29] = test system: Mycolicibacterium aurum; assay: Antimycobacterial activity against Mycobacterium aurum DSM 43536; type: functional, organism-based
[30] = test system: Mycobacterium tuberculosis; assay: Antimycobacterial activity against Mycobacterium tuberculosis H37Rv ATCC 27294 in GAS medium after 1 week by microplate alamar blue assay; type: functional; conditions: H37Rv ATCC 27294, 168 h
[31] = test system: Mycobacterium avium; assay: Antimycobacterial activity against Mycobacterium avium MAC 116; type: functional, organism-based
[32] = test system: Mycobacterium tuberculosis; assay: Antimycobacterial activity against Mycobacterium tuberculosis H37Rv; type: functional
[33] = test system: Mycolicibacterium smegmatis; assay: Antimycobacterial activity against Mycobacterium smegmatis; type: functional
[34] = test system: Mycobacterium tuberculosis; assay: Antimycobacterial activity against Mycobacterium tuberculosis; type: functional
[35] = test system: Mycobacterium tuberculosis; assay: Antimycobacterial activity against Mycobacterium tuberculosis Erdman infected in BALB/c mouse assessed as reduction of bacterial load at 10 mg/kg, po qd for 5 days per week administered 60 days after infection measured after 85 days post infection relative to untreated control; type: functional
[36] = test system: Mycobacterium tuberculosis; assay: Antimycobacterial activity against Mycobacterium tuberculosis assessed as growth inhibition at 12.5 ug/mL; type: functional

With `O=C(OCc1ccccc1)c1coc(-c2ccc(F)c([N+](=O)[O-])c2)n1` the Activity [1] was “inactive”, the IC50 [2] was > 128 µM and the Activity [3] was “inactive”. The MIC [4] was 31.9 µM (≈ 10.9 µg/mL), the Activity [5] was “inactive” and the Activity [6] was “Non-toxic”. The Activity [7] was “inactive”, the Stability [8] was 2.1% and the Activity [9] was “inactive”. For the same compound, the Activity [10] was “inactive”, the Activity [11] was “inactive” and the Activity [12] was “Active”. The Activity [13] was 12%, the Activity [14] was “inactive” and the Activity [15] was “inactive”. For the same compound, the Activity [16] was “inactive”, the MIC [17] was 0.48 µM (≈ 0.164 µg/mL) and the Activity [18] was “Active”. For the same compound, the Activity [19] was “Non-toxic”, the Activity [20] was “inactive” and the Activity [21] was “inactive”. The Activity [22] was “inactive”, the Activity [23] was “inactive” and the Stability [24] was 8.1%. For the same compound, the Activity [25] was “inactive”, the Activity [26] was “inactive” and the Activity [27] was “inactive”. For the same compound, the Activity [28] was “inactive”, the Activity [29] was “inactive” and the MIC [30] was 1.1 µM (≈ 0.377 µg/mL). For the same compound, the Activity [31] was “inactive”.
For `CCCCCCCCCCCCCCCC(=O)N(O)CCCC[C@H](NC(=O)[C@@H]1COC(c2ccccc2O)=N1)C(=O)OC[C@H](NC(=O)OC(C)(C)C)C(=O)N[C@H]1CCCCN(O)C1=O`, the Activity [1] was “inactive”, the MIC [32] was < 0.2 µM and the MIC [33] was 0.2 µM (≈ 0.181 µg/mL).
In the case of `O=C(OCc1ccccc1)[C@@H]1COC(c2ccccc2OCc2ccccc2)=N1`, the Activity [1] is reported as “inactive”, the IC50 [2] is reported as > 128 µM and the MIC [4] is reported as 67.3 µM (≈ 26.1 µg/mL). For the same compound, the MIC [34] was 7.7 µM (≈ 2.98 µg/mL), the Activity [6] was “Non-toxic” and the Stability [8] was 1.4%. The Activity [13] was “Non-toxic”, the Activity [19] was “Non-toxic” and the Stability [24] was 8.4%. The MIC [30] was 12.6 µM (≈ 4.88 µg/mL).
For `O=C(OCc1ccccc1)c1coc(-c2ccccc2Cl)n1`, the Activity [1] was “inactive”, the IC50 [2] was > 128 µM and the Activity [3] was “inactive”. The MIC [4] was 11.4 µM (≈ 3.58 µg/mL), the Activity [5] was “inactive” and the Activity [6] was “Non-toxic”. For the same compound, the Activity [7] was “inactive”, the Stability [8] was 4.2% and the Activity [9] was “inactive”. For the same compound, the Activity [10] was “inactive”, the Activity [11] was “inactive” and the Activity [12] was “Active”. The Activity [13] was “Non-toxic”, the Activity [14] was “inactive” and the Activity [15] was “inactive”. For the same compound, the Activity [16] was “inactive”, the MIC [17] was 1.69 µM (≈ 0.53 µg/mL) and the Activity [18] was “Active”. The Activity [19] was “Non-toxic”, the Activity [20] was “inactive” and the Activity [21] was “inactive”. The Activity [22] was “inactive”, the Activity [23] was “inactive” and the Stability [24] was 8.8%. For the same compound, the Activity [26] was “inactive”, the Activity [27] was “inactive” and the Activity [28] was “inactive”. For the same compound, the Activity [29] was “inactive”, the MIC [30] was 0.73 µM (≈ 0.229 µg/mL) and the Activity [31] was “inactive”.
In the case of `CO[C@H]1/C=C/O[C@@]2(C)Oc3c(C)c(O)c4c(O)c(c(/C=N/N5CCN(C)CC5)c(O)c4c3C2=O)NC(=O)/C(C)=C\C=C\[C@H](C)[C@H](O)[C@@H](C)[C@@H](O)[C@@H](C)[C@H](OC(C)=O)[C@@H]1C` [RIFAMPIN], the IC50 [2] is reported as 125 µM, the “fold change (FC)” value [35] is reported as >2 and the MIC [17] is reported as 0.01 µM (≈ 0.00823 µg/mL). The MIC [30] was 0.06 µM (≈ 0.0494 µg/mL).
With `CCCCCCCCCCCCCCCC(=O)N(O)CCCC[C@H](NC(=O)[C@@H]1COC(c2ccccc2O)=N1)C(=O)O[C@@H](C)CC(=O)N[C@H]1CCCCN(O)C1=O` [MYCOBACTIN S] the Activity [1] was “inactive”, the Activity [3] was “inactive” and the inhibition at 12.5 µg/mL [36] was 99%. For the same compound, the Activity [5] was “inactive”, the Activity [7] was “inactive” and the MIC [33] was 3.1 µM (≈ 2.49 µg/mL). For the same compound, the Activity [9] was “inactive”, the Activity [10] was “inactive” and the Activity [11] was “inactive”. The Activity [12] was “Active”, the Activity [14] was “inactive” and the Activity [15] was “inactive”. For the same compound, the Activity [16] was “inactive”, the Activity [18] was “Active” and the Activity [20] was “inactive”. For the same compound, the Activity [21] was “inactive”, the Activity [22] was “inactive” and the Activity [23] was “inactive”. The Activity [26] was “inactive”, the Activity [27] was “inactive” and the Activity [28] was “inactive”. The Activity [29] was “inactive” and the Activity [31] was “inactive”.
In the case of `O=C(OCc1ccccc1)c1coc(-c2ccccc2)n1`, the Activity [1] is reported as “inactive”, the IC50 [2] is reported as 121 µM and the Activity [3] is reported as “inactive”. The MIC [4] was 3.8 µM (≈ 1.06 µg/mL), the Activity [5] was “inactive” and the Activity [6] was “Non-toxic”. The Activity [7] was “inactive”, the Stability [8] was 0.5% and the Activity [9] was “inactive”. For the same compound, the Activity [10] was “inactive”, the Activity [11] was “inactive” and the Activity [12] was “Active”. For the same compound, the Activity [13] was “Non-toxic”, the Activity [14] was “inactive” and the Activity [15] was “inactive”. For the same compound, the Activity [16] was “inactive”, the MIC [17] was 0.49 µM (≈ 0.137 µg/mL) and the Activity [18] was “Active”. The Activity [19] was “Non-toxic”, the Activity [20] was “inactive” and the Activity [21] was “inactive”. The Activity [22] was “inactive”, the Activity [23] was “inactive” and the Stability [24] was 15%. The Activity [26] was “inactive”, the Activity [27] was “inactive” and the Activity [28] was “inactive”. For the same compound, the Activity [29] was “inactive”, the MIC [30] was 0.47 µM (≈ 0.131 µg/mL) and the Activity [31] was “inactive”.
